Patent US12577255B2, “MDM2-based modulators of proteolysis and associated methods of use” (Arvinas Operations, Inc., priority 2015, dated 2026)

Key:
p53 = assay: Western blot of HCT116 cells, p53 level; assay type: cell-based, human; details: Western blot (FIG. 2, FIG. 3)
[1] = biological target: T1, bromodomain-containing protein 4 (BRD4) (Homo sapiens, UniProt O60885); assay: BRD4 Western blot (degradation); assay type: cell-based; details: at 1 μM; VCaP cells, 16 h
T1 construct: VCaP cells were chased from ATCC and cultured in Dulbecco's Modified Eagle's Medium; host or cells: VCaP

[2] = system: p53^WT HCT-116 colon cancer cell lines; assay: Cell growth assay; assay type: cell-based, human; details: p53^WT HCT-116 (FIG. 4)
BRD4 = BRD4 (Homo sapiens, UniProt O60885); assay: Time course of BRD4 degradation in A549; assay type: cell-based; design: endogenous in cells; host or cells: A549; details: human lung cancer cell line A549 (FIG. 6)
MDM2 = biological target: T2, MDM2 (Homo sapiens, UniProt Q00987); assay: Western blot of HCT116 cells, MDM2 level; assay type: cell-based; details: Western blot (FIG. 2, FIG. 3)
T2 construct: Western blot of HCT116 cells treated with chimeric molecules; endogenous in cells; host or cells: HCT116
T2 sequence (Q00987 whole entry): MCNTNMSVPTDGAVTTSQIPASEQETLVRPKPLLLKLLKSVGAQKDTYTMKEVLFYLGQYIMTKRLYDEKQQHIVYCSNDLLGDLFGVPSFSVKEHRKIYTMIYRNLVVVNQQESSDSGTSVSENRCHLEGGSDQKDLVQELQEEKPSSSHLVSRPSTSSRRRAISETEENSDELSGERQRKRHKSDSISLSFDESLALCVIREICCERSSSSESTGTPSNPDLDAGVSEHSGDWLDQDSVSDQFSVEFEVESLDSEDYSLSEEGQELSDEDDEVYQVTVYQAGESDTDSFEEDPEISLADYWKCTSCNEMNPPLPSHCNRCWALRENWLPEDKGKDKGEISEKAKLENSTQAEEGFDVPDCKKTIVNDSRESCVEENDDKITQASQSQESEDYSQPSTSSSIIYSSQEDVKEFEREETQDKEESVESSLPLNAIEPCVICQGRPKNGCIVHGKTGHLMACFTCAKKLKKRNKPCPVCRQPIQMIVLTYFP

COc1cc(C(=O)NCCOCCOCCOCCOCCNC(=O)C[C@@H]2N=C(c3ccc(Cl)cc3)c3c(sc(C)c3C)-n3c(C)nnc32)ccc1NC(=O)[C@@H]1N[C@@H](CC(C)(C)C)[C@](C#N)(c2ccc(Cl)cc2F)[C@H]1c1cccc(Cl)c1F [Compound A1893, (2R,3S,4R,5S)-3-(3-chloro-2-fluorophenyl)-4-(4-chloro-2-fluorophenyl)-N-{4-[(14-{2-[(9S)-7-(4-chlorophenyl)-4,5,13-trimethyl-3-thia-1,8,11,12-tetraazatricyclo[8.3.0.0^2,^6]-trideca-2(6),4,7,10,12-pentaen-9-yl]acetamido}-3,6,9,12-tetraoxatetradecan-1-yl)carbamoyl]-2-methoxyphenyl}-4-cyano-5-(2,2-dimethylpropyl)pyrrolidine-2-carboxamide]
p53 level increase (p53): dose dependent p53 level increase
Degradation activity BRD4 [1]: C (larger than 50% degradation at 1 μM)
growth inhibition [2]: very potent growth inhibition
BRD4 degradation, time course (BRD4): BRD4 degradation
MDM2 up-regulation (MDM2): up-regulation of MDM2
